From patent US7781421B2, “Neuroactive 13, 24-cyclo-18, 21-dinorcholanes and structurally related pentacyclic steriods” (Washington University, priority 2003, dated 2010) come the findings set out here.

For data set [1], the target named is GABAA receptor ([35S]-TBPS binding site, rat brain cortical membranes). The data set is described as follows: Displacement of [35S]-TBPS binding, rat brain cortical membranes. The settings on record: 5 μM GABA, 2 nM [35S]-TBPS; ± standard error of the means. An outline of the steps: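 Rat cortical P2 membranes (0.5 mg/mL protein) incubated 2 h at room temperature with 2 nM [35S]-TBPS, 5 μM GABA and steroid (1 nM–10 μM) in 200 mM NaCl/50 mM potassium phosphate, pH 7.4. Filter-bound radioactivity counted; IC50 from Hill equation fit, triplicate points.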
In general terms: Displacement assays read how much labelled ligand stays bound in the presence of the test substance.

A further data set deals with Xenopus laevis tadpoles. Kind of data set: Tadpole loss of righting (LRR) and swimming (LSR) reflexes. It is filed as in vivo. The settings on record: 3 h equilibration at room temperature; for EC50: Xenopus laevis, 3 h, read-out: LSR EC50 (loss of swimming response). Summed up:
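Groups of 10 early prelimb-bud Xenopus laevis tadpoles were held for 3 h at room temperature in oxygenated Ringer's containing compound (DMSO ≤0.1%). Loss of righting was scored as failure to right within 5 sec after flipping, and loss of swimming as failure to swim when touched. EC50 came from a Hill equation fit.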

Data set [2] addresses T1, rat α1β2γ2 GABAA Receptor (Rattus norvegicus, UniProt P18508+P62813+P63138, INS375LLRMFSFK).
T1 construct: from linearized pBluescript vectors containing receptor coding regions; expressed in transfected cells; host or cells: Xenopus laevis oocytes injected with in vitro transcribed capped mRNA
Kind of data set: Xenopus oocyte two-electrode voltage-clamp electrophysiology. Type of data set: cell-based. The settings on record: for Oocyte electrophysiology, ratio of currents in presence/absence of compound, 0.1 μM: 0.1 μM compound co-applied with 2 μM GABA; for Oocyte electrophysiology, ratio of currents in presence/absence of compound, 0.1 μM / Oocyte electrophysiology, ratio of currents in presence/absence of compound, 1 μM / Oocyte electrophysiology, ratio of currents in presence/absence of compound, 10 μM: −70 mV; for Oocyte electrophysiology, ratio of currents in presence/absence of compound, 1 μM: 1 μM compound co-applied with 2 μM GABA; for Oocyte electrophysiology, ratio of currents in presence/absence of compound, 10 μM: 10 μM compound co-applied with 2 μM GABA; for Gating (10 μM), ratio of compound only current/2 μM GABA current: direct current gated by 10 μM compound in the absence of GABA. Summed up:
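Oocytes injected with rat α1, β2, γ2L mRNA, voltage-clamped at −70 mV 2-5 days later in ND96. Compounds co-applied with 2 μM GABA for 20 s; peak current ratio with/without compound, n≥4 oocytes. (G): current from 10 μM compound alone, as ratio to 2 μM GABA current.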

T1 sequence (P62813 28-455, stated change not applied): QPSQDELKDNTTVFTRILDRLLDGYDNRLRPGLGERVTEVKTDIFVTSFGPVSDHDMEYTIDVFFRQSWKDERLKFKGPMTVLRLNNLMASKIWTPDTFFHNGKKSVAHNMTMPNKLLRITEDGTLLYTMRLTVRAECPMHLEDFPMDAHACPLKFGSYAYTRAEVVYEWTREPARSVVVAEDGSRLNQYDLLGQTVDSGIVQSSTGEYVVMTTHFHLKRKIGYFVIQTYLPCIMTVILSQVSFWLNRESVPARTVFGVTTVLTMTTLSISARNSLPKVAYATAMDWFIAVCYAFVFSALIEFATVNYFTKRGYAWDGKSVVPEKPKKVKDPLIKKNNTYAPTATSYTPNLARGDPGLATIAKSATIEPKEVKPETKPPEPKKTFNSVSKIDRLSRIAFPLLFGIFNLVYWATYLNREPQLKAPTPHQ
T1 sequence (P63138 26-474, stated change not applied): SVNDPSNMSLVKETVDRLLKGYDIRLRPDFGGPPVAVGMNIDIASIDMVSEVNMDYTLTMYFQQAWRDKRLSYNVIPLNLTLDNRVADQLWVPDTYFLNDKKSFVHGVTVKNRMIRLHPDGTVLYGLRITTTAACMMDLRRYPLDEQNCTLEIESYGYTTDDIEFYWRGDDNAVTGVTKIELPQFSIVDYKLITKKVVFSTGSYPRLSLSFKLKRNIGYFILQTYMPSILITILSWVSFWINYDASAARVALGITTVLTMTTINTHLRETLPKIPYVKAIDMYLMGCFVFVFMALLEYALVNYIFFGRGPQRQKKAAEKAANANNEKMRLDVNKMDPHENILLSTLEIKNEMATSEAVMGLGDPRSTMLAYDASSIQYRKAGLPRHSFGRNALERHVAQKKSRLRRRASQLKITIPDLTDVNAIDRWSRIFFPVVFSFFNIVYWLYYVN
T1 sequence (P18508 with tags, fused parts or gaps INS375LLRMFSFK): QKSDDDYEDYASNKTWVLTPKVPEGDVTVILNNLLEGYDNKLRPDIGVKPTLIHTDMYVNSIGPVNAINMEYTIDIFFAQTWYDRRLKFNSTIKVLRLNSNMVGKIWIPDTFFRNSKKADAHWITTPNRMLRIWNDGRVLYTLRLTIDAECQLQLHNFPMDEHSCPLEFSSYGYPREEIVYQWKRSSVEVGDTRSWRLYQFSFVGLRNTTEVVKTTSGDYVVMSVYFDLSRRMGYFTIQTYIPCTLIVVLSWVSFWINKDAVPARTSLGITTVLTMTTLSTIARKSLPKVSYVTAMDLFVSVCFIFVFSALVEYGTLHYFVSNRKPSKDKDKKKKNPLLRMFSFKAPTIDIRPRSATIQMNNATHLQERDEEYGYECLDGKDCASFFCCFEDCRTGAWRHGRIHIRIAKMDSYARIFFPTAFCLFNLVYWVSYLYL

Broadly, the IC50 is the concentration that gives 50% inhibition. Lower therefore signals inhibition by little substance. A word on the melting point: it is the temperature, or range, at which the solid turns liquid. Take `C[C@]12CC[C@@H](O)C[C@@H]1CCC1C3CC[C@@H]4[C@@]5(CCC[C@]34CCC12)CO5` (stereo partly drawn) [Compound 73, (3α,5α,20S)-20,21-Epoxy-13,24-cyclo-18-norcholan-3-ol]: the melting point is 186 to 192 °C (dec.). In addition, in data set [1], the concentration for half-maximal inhibition (IC50) turned out to be 1290 nM. Moreover, in the data set on Xenopus laevis tadpoles, the “LRR ED50 (loss of righting response)” value stood at 4000 ± 1080 nM and the “LSR EC50 (loss of swimming response)” value is on record as “None @ 10”. Also, in data set [2], the “Oocyte electrophysiology, ratio of currents in presence/absence of compound, 0.1 μM” value worked out at 0.88 ± 0.05; the “Oocyte electrophysiology, ratio of currents in presence/absence of compound, 1 μM” value turned out to be 2.54 ± 0.40; the “Oocyte electrophysiology, ratio of currents in presence/absence of compound, 10 μM” value came out at 4.84 ± 1.05; the “Gating (10 μM), ratio of compound only current/2 μM GABA current” value (“Gating (10 μM), ratio” for short) is reported as −0.02 ± 0.04.

`C[C@]12CC[C@@H](O)C[C@@H]1CCC1C3CC[C@@H]4[C@]5(CCC[C@]34CCC12)CO5` (stereo partly drawn) [Compound 74, (3α,5α,20R)-20,21-Epoxy-13,24-cyclo-18-norcholan-3-ol]: the melting point was 206 to 211 °C (dec.). The IC50 in data set [1] was found to be 64 ± 9 nM. Besides, in the data set with Xenopus laevis tadpoles, the “LRR ED50 (loss of righting response)” value was >10000 nM and the “LSR EC50 (loss of swimming response)” value is reported as “None @ 10”. Also, in data set [2], the “Oocyte electrophysiology, ratio of currents in presence/absence of compound, 0.1 μM” value is reported as 1.61 ± 0.18; the “Oocyte electrophysiology, ratio of currents in presence/absence of compound, 1 μM” value turned out to be 5.46 ± 1.21; the “Oocyte electrophysiology, ratio of currents in presence/absence of compound, 10 μM” value amounted to 4.53 ± 0.75; the “Gating (10 μM), ratio” value was −0.01 ± 0.01.

The compound `CC(=O)C1CCCC23CCC4C(CCC5CC(O)CCC54C)C2CCC13` [Compound 79, (3α,5α,20S)-1-[3-Hydroxy-13,24-cyclo-18,21-dinorcholan-20-yl]ethanone] gave a melting point of 187 to 189 °C. The compound also returned an IC50 in data set [1] of 93 ± 9 nM. Besides, in the data set on Xenopus laevis tadpoles, the “LRR ED50 (loss of righting response)” value was “None @ 10” and the “LSR EC50 (loss of swimming response)” value is reported as “None @ 10”. In addition, in data set [2], the “Oocyte electrophysiology, ratio of currents in presence/absence of compound, 0.1 μM” value was 1.00 ± 0.08; the “Oocyte electrophysiology, ratio of currents in presence/absence of compound, 1 μM” value is reported as 1.13 ± 0.15; the “Oocyte electrophysiology, ratio of currents in presence/absence of compound, 10 μM” value came to 1.70 ± 0.12; the “Gating (10 μM), ratio” value is reported as −0.06 ± 0.04.

Regarding `CC(=O)C1CCCC23CCC4C(CCC5CC(O)CCC54C)C2CCC13` [Compound 80, (3α,5α,20R)-1-[3-Hydroxy-13,24-cyclo-18,21-dinorcholan-20-yl]ethanone], the melting point lay in the range of 228 to 229 °C. Further, the IC50 in data set [1] stood at 2060 nM. Besides, in the data set on Xenopus laevis tadpoles, the “LRR ED50 (loss of righting response)” value is “None @ 10” and the “LSR EC50 (loss of swimming response)” value was “None @ 10”. Further, in data set [2], the “Oocyte electrophysiology, ratio of currents in presence/absence of compound, 0.1 μM” value is listed as 0.85 ± 0.02; the “Oocyte electrophysiology, ratio of currents in presence/absence of compound, 1 μM” value stood at 0.77 ± 0.03; the “Oocyte electrophysiology, ratio of currents in presence/absence of compound, 10 μM” value worked out at 0.93 ± 0.07; the “Gating (10 μM), ratio” value stood at 0.01 ± 0.01.

Take `CC(=O)C1=CCCC23CCC4C(CCC5CC(O)CCC54C)C2CCC13` (stereo not drawn) [Compound 83, (3α,5α)-1-[3-Hydroxy-13,24-cyclo-18,21-dinorchol-20(22)-en-20-yl]ethanone]: the melting point lay in the range of 198 to 200 °C. Further, in data set [1], the IC50 was 3190 nM. In the data set on Xenopus laevis tadpoles, the “LRR ED50 (loss of righting response)” value is 7200 ± 6620 nM and the “LSR EC50 (loss of swimming response)” value was “None @ 10”. For the same compound, in data set [2], the “Oocyte electrophysiology, ratio of currents in presence/absence of compound, 0.1 μM” value was determined as 0.89 ± 0.02; the “Oocyte electrophysiology, ratio of currents in presence/absence of compound, 1 μM” value is 0.86 ± 0.04; the “Oocyte electrophysiology, ratio of currents in presence/absence of compound, 10 μM” value was 1.15 ± 0.04; the “Gating (10 μM), ratio” value is 0.00 ± 0.00.

Usually EC50 stands for the concentration giving half of the maximal effect. Consider `CC12CCC(O)CC1CCC1C2CCC23CCC(=O)C2CCC13` (stereo not drawn) [Compound 89, (3α,5α)-3-Hydroxy-18,21-cyclopregnan-20-one], for which the melting point is 176 to 178.5 °C. This compound displayed an IC50 in data set [1] of 204 ± 36 nM. In the data set with Xenopus laevis tadpoles, the “LRR ED50 (loss of righting response)” value is 2630 ± 70 nM and the EC50 came out at 5480 ± 150 nM. Besides, in data set [2], the “Oocyte electrophysiology, ratio of currents in presence/absence of compound, 0.1 μM” value is reported as 0.81 ± 0.02; the “Oocyte electrophysiology, ratio of currents in presence/absence of compound, 1 μM” value turned out to be 1.02 ± 0.07; the “Oocyte electrophysiology, ratio of currents in presence/absence of compound, 10 μM” value was determined as 4.54 ± 0.64; the “Gating (10 μM), ratio” value came out at 0.01 ± 0.00.

Compound `CC12CCC(O)CC1CCC1C2CCC23C=CC(=O)C2CCC13` (stereo not drawn) [Compound 94, (3α,5α)-3-Hydroxy-18,21-cyclopregn-18(21)-en-20-one] came in with a melting point of 139 to 141 °C. In data set [1], this compound came in with an IC50 of 745 ± 75 nM. In addition, in the data set on Xenopus laevis tadpoles, the “LRR ED50 (loss of righting response)” value was found to be 3370 ± 160 nM and the EC50 came to 9520 nM. In data set [2], the “Oocyte electrophysiology, ratio of currents in presence/absence of compound, 0.1 μM” value came to 0.96 ± 0.02; the “Oocyte electrophysiology, ratio of currents in presence/absence of compound, 1 μM” value came out at 1.41 ± 0.09; the “Oocyte electrophysiology, ratio of currents in presence/absence of compound, 10 μM” value was 2.78 ± 0.13; the “Gating (10 μM), ratio” value is recorded as −0.04 ± 0.02.

The compound `CC12CCC(O)CC1CCC1C2CCC23C=C(Br)C(=O)C2CCC13` (stereo not drawn) [Compound 95, (3α,5α)-21-bromo-3-hydroxy-18,21-cyclopregn-18(21)-en-20-one] had a melting point of 220 to 222.5 °C. The compound also showed an IC50 in data set [1] of 94 ± 17 nM. In the data set with Xenopus laevis tadpoles, the “LRR ED50 (loss of righting response)” value was 290 ± 40 nM and the EC50 stood at 550 ± 90 nM. In addition, in data set [2], the “Oocyte electrophysiology, ratio of currents in presence/absence of compound, 0.1 μM” value came out at 1.25 ± 0.08; the “Oocyte electrophysiology, ratio of currents in presence/absence of compound, 1 μM” value stood at 1.99 ± 0.20; the “Oocyte electrophysiology, ratio of currents in presence/absence of compound, 10 μM” value turned out to be 8.75 ± 1.92; the “Gating (10 μM), ratio” value was 0.02 ± 0.02.

Regarding `CC12CCC(O)CC1CCC1C2CCC23CCC(=CC#N)C2CCC13` (stereo not drawn) [Compound 96, (3α,5α,20E)-3-Hydroxy-18,21-cyclopregnan-20-ylideneacetonitrile], the melting point fell in the range of 201 to 202.5 °C. This compound came in with an IC50 in data set [1] of 168 ± 32 nM. Besides, in the data set on Xenopus laevis tadpoles, the “LRR ED50 (loss of righting response)” value is 2770 ± 1160 nM and the “LSR EC50 (loss of swimming response)” value was “None @ 10”. Besides, in data set [2], the “Oocyte electrophysiology, ratio of currents in presence/absence of compound, 0.1 μM” value turned out to be 1.40 ± 0.21; the “Oocyte electrophysiology, ratio of currents in presence/absence of compound, 1 μM” value was found to be 2.33 ± 0.30; the “Oocyte electrophysiology, ratio of currents in presence/absence of compound, 10 μM” value turned out to be 2.90 ± 0.29; the “Gating (10 μM), ratio” value is on record as 0.03 ± 0.03.

Regarding `CC12CCC(O)CC1CCC1C2CCC23CCC(=CC#N)C2CCC13` (stereo not drawn) [Compound 97, (3α,5α,20Z)-3-Hydroxy-18,21-cyclopregnan-20-ylideneacetonitrile], the melting point was 226 to 228 °C. In addition, the IC50 in data set [1] worked out at 17200 nM. Also, in the data set with Xenopus laevis tadpoles, the “LRR ED50 (loss of righting response)” value was >10000 nM and the “LSR EC50 (loss of swimming response)” value is reported as “None @ 10”. In data set [2], the “Oocyte electrophysiology, ratio of currents in presence/absence of compound, 0.1 μM” value turned out to be 0.88 ± 0.07; the “Oocyte electrophysiology, ratio of currents in presence/absence of compound, 1 μM” value was determined as 0.87 ± 0.15; the “Oocyte electrophysiology, ratio of currents in presence/absence of compound, 10 μM” value is on record as 1.10 ± 0.08; the “Gating (10 μM), ratio” value is listed as −0.02 ± 0.06.
